Assay results as given in paper PMC8446442, “Crystal Structure of Mycobacterium tuberculosis Elongation Factor G1” (Frontiers in Molecular Biosciences, 2021).

Legend:
[1] = biological target: T1, Mtb EF-G1 (Elongation factor G1) (Mycobacterium tuberculosis, UniProt P9WNM7); test: SPR (Biacore T200), […] steady-state affinity fit; format: binding; design: gene fusA; recombinant Mtb EF-G1 with a C-terminal His tag, immobilized on CM5 chip
[2] = biological target: T1, Mtb EF-G1 (Elongation factor G1); test: ITC at […] °C; crystal structure of the complex ([…] Å, SeMet SAD); format: binding; design: gene fusA; recombinant Mtb EF-G1 with a C-terminal His tag

T1 sequence (P9WNM7 whole entry): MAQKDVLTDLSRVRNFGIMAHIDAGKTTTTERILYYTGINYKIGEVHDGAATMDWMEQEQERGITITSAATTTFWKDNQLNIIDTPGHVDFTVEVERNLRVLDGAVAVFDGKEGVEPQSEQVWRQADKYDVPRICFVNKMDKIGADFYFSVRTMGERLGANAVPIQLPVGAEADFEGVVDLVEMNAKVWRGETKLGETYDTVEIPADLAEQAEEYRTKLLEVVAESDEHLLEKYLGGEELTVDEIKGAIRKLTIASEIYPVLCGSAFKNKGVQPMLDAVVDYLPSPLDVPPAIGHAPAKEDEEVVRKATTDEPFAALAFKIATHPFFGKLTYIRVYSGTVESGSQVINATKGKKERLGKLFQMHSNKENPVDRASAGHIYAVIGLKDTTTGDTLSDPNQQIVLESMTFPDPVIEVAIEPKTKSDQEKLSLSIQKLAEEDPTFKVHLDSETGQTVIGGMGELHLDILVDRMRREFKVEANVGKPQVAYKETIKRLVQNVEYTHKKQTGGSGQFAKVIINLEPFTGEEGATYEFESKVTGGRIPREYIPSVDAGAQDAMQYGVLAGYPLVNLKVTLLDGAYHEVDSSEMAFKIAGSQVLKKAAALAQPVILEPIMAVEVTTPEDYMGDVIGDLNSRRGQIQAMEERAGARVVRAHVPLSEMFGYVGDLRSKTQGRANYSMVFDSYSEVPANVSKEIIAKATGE

Structure (SMILES) | Kd [1] | Kd [2]
CC(=O)O[C@H]1C[C@@]2(C)[C@@H](C[C@@H](O)[C@H]3[C@@]4(C)CC[C@@H](O)[C@@H](C)[C@@H]4CC[C@@]32C)/C1=C(\CCC=C(C)C)C(=O)O [FA, Fusidic acid] | 3.54 µM | 
Nc1nc2c(ncn2[C@@H]2O[C@H](COP(=O)(O)OP(=O)(O)O)[C@@H](O)[C@H]2O)c(=O)[nH]1 [GDP] |  | 11.5 ± 0.3 µM
